Experimental data from US20250368647A1, “NITROGEN CONTAINING CONDENSED 2,3-DIHYDROQUINAZOLINONE COMPOUNDS AS NAV1.8 INHIBITORS” (GLAXOSMITHKLINE INTELLECTUAL PROPERTY DEVELOPMENT LIMITED, priority 2022, published 2025).
Where a name gives a salt, the structure may show the parent alone.

target: human Nav1.8 (Homo sapiens (Human), UniProt Q9Y5Y9); experiment: QPatch 48 HTX voltage-clamp electrophysiology, half inactivation state (V1/2) protocol, HEK293-Nav1.8 cells; assay type: cell-based; conditions: HEK293 cells expressing human Nav1.8, human Navβ1 and human TREK1, P2 current
Procedure: Human embryonic kidney 293 cells (HEK293) expressing human Nav1.8, human Navβ1 and human TREK1 (HEK293-Nav1.8) were grown in T150 cell culture flasks at 37° C., 5% CO2 incubator. HEK293-Nav1.8 were passaged every 2-3 days when confluency reached 80-90% in T150 cell culture flasks.
Pharmacological assessment of compounds of the invention was performed using the QPatch 48 HTX electrophysiological platform. HEK293-Nav1.8 cells were prepared on the day of use by removing culture media, washing in DPBS, adding Accutase (2 mL to cover the surface, aspirate 1 mL then 1-2 minutes at 37° C.) followed by addition of CHO-SFM II to stop the enzyme digestion and in order to obtain a suspension of 3×10^6 cell/mL.
Compounds of the invention were prepared in an extracellular solution of the following composition: NaCl (145 mM), KCl (4 mM), CaCl2) (2 mM), MgCl (2 mM), HEPES (1 mM), Glucose (10 mM), pH 7.4 with NaOH Osmolality 300 mOsM/L. An intracellular solution of the following composition was used: CsF (115 mM), CsCl (20 mM), NaCl (5 mM), EGTA (10 mM), HEPES (10 mM), Sucrose (20 mM), pH 7.2 with CsOH Osmolality 310 mOsm/L.
Utilizing the voltage-clamp mode in the QPatch 48 HTX system a half inactivation state voltage protocol (V1/2) was used to determine pharmacological activity of compounds of the invention at Nav1.8 ion channels. A V1/2 protocol was utilized with the following voltage steps: a holding voltage of −100 mV was established followed by a 20 ms voltage step to 0 mV (P1), followed by an inactivating voltage step at −46 mV for 8 seconds, followed by a step to −100 mV for 20 ms, before a 20 ms step to 0 mV (P2), then returned to the holding voltage of −100 mV. This voltage protocol was repeated at a frequency of every 15 seconds, the current magnitude was quantified at the P2 step throughout the recording. Inhibition of the measured current amplitude with compounds of the invention was analyzed by fitting a 4-6 points dose-response curve allowing determination of the fifty percent inhibition concentration (IC50). P2 currents were normalized according to measurements made at baseline (Baseline, vehicle only), after compound (Input, at each test concentration), and after positive reference compound (FullResponse, to achieve complete block), fit to the following equation: […]
To assess current run-down over the course of the experiment vehicle-only wells were utilized and the normalized current with vehicle-only (n.IVEH) was determined. To correct the compound response for run-down, the currents were corrected according to the following formula: […]
Compound inhibition was fitted to the following Hill Equation to estimate the half maximal inhibition concentration (IC50)
[formula] • where Y is the normalized run-down corrected inhibition relative to the vehicle control (equivalent to n.IRD_Correct), C the test compound concentration, IC50 the concentration of test compound to inhibit the sodium current by 50%, and h the Hill coefficient.

Chain of human Nav1.8 (Q9Y5Y9 whole entry): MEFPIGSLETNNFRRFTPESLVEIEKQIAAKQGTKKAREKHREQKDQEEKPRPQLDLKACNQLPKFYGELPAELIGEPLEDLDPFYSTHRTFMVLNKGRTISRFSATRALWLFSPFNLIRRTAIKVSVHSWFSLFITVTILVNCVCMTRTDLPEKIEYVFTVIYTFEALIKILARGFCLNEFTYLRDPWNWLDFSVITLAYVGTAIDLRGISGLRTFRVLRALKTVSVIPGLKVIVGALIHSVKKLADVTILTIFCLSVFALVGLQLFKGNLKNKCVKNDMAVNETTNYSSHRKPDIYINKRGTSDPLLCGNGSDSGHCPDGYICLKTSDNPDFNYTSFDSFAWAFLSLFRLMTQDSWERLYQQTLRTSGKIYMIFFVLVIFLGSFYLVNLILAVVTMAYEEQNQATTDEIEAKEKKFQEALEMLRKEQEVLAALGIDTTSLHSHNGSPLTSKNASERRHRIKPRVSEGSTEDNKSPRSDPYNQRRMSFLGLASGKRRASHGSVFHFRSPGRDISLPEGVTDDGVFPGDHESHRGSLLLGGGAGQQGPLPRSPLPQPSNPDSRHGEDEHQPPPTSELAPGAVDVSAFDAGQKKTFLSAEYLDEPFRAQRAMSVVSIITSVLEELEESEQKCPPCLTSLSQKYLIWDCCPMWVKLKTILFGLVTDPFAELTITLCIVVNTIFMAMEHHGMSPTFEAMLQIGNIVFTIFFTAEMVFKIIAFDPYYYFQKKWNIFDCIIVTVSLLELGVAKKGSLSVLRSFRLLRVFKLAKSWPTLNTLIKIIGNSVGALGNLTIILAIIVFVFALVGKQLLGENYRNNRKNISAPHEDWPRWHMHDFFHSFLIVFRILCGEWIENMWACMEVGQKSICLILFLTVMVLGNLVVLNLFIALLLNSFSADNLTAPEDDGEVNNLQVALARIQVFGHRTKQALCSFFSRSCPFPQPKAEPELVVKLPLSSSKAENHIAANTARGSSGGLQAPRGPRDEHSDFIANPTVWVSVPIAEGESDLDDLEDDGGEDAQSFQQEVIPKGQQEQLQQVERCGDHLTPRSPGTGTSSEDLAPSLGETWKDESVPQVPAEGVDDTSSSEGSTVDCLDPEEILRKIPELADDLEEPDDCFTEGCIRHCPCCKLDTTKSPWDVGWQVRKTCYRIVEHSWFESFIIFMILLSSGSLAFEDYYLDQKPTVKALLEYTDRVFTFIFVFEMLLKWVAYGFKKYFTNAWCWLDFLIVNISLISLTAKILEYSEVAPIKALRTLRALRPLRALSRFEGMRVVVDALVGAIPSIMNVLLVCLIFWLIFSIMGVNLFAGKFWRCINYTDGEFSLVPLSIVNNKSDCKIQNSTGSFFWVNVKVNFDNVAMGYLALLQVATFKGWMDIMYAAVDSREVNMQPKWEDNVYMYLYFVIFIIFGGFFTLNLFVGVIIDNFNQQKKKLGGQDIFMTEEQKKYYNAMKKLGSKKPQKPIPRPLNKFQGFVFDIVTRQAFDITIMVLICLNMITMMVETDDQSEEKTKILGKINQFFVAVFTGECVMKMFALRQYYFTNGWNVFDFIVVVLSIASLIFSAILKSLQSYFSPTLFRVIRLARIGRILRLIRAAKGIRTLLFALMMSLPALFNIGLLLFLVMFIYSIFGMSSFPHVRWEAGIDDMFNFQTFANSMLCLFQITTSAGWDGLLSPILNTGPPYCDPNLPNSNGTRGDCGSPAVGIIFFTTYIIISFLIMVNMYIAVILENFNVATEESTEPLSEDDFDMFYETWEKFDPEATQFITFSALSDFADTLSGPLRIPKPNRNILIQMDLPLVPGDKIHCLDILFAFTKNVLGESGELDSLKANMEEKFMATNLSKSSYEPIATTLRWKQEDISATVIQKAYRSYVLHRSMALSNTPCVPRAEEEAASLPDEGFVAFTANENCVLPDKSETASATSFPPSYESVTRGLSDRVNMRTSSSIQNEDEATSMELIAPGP
Chain of human Nav1.8 (Q07699 19-218 partner): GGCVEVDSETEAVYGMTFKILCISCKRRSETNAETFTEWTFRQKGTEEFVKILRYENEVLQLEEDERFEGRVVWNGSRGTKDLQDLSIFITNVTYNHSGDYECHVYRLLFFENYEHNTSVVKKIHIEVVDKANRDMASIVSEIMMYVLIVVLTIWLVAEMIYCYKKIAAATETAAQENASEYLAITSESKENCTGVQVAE

| SMILES | Nav1.8, pIC50 |
| --- | --- |
| O=C1c2cc(C(F)(F)F)ccc2N2CN1c1ccc(=O)[nH]c1NCCCc1c2ccc(F)c1F [Example 37, 8,9-Difluoro-2-(trifluoromethyl)-10,11,12,13-tetrahydro-19H-5,18-methanodibenzo[f,i]dipyrido[2,3,-b][1,4,8]triazacyclotridecine-15,19(14H)-dione] | 7.7 |
| O=C1c2cc(C(F)(F)F)ncc2N2CN1c1ccc(=O)[nH]c1NCCCc1c2ccc(F)c1F [Example 38, 8,9-Diluoro-2-(trifluoromethyl)-10,11,12,13-tetrahydro-19H-5,18-methanodibenzo[i]dipyrido[2,3,-b:4′,3′-f][1,4,8]triazacyclotridecine-15,19(14H)-dione] | 6.8 |
| O=C1c2cc(C(F)(F)F)ccc2N2CN1c1ccc(=O)[nH]c1NCCCc1cc(F)c(F)cc12 [Example 39, 7,8-Difluoro-2-(trifluoromethyl)-10,11,12,13-tetrahydro-19H-5,18-methanodibenzo[f,i]dipyrido[2,3,-b][1,4,8]triazacyclotridecine-15,19(14H)-dione] | 7.0 |
| O=C1c2cc(C(F)(F)F)ncc2N2CN1c1ccc(=O)[nH]c1CCCCc1cc(F)ccc12 [Example 40, 8-Fluoro-2-(trifluoromethyl)-10,11,12,13-tetrahydro-19H-5,18-methanobenzo[l]dipyrido[3,4-b:3′,2′-f][1,5]diazocyclotridecine-15,19(14H)-dione] | 6.0 |
| O=C1c2cc(C(F)(F)F)ccc2N2CN1c1ccc(=O)[nH]c1CCNCc1cc(F)ccc12 [Example 41, 8-Fluoro-2-(trifluoromethyl)-10,11,12,13-tetrahydro-19H-5,18-methanodibenzo[c,f]pyrido[3,2-f][1,5,9]triazacyclotridecine-15,19(14H)-dione] | 7.3 |
| O=C1c2cc(Cl)cnc2N2CN1c1ccc(=O)[nH]c1CCNCc1cc(F)ccc12 [Example 42, 2-Chloro-8-fluoro-10,11,12,13-tetrahydro-19H-5,18-methanodibenzo[c]dipyrido[2,3-f:3′,2′-j][1,5,9]triazacyclotridecine-15,19(14H)-dione] | 6.9 |
| O=C1c2cc(Cl)c(F)cc2N2CN1c1ccc(=O)[nH]c1CCNCc1cc(F)ccc12 [Example 43, 2-Chloro-3,8-difluoro-10,11,12,13-tetrahydro-19H-5,18-methanodibenzo[c,f]pyrido[3,2-f][1,5,9]triazacyclotridecine-15,19(14H)-dione] | 7.4 |
| O=C1c2cc(F)c(C(F)(F)F)cc2N2CN1c1ccc(=O)[nH]c1CCNCc1cc(F)ccc12 [Example 44, 2,8-Difluoro-3-(trifluoromethyl)-10,11,12,13-tetrahydro-19H-5,18-methanodibenzo[c,f]pyrido[3,2-i][1,5,9]triazacyclotridecine-15,19(14H)-dione] | 8.6 |
| O=C1c2c(ccc(C(F)(F)F)c2F)N2CN1c1ccc(=O)[nH]c1CCNCc1cc(F)ccc12 [Example 45, 1,8-Difluoro-2-(trifluoromethyl)-10,11,12,13-tetrahydro-19H-5,18-methanodibenzo[c,f]pyrido[3,2-j][1,5,9]triazacyclotridecine-15,19(14H)-dione] | 6.9 |
| Cl.O=C1c2cc(F)c(Cl)cc2N2CN1c1ccc(=O)[nH]c1CCNCc1cc(F)ccc12 [Example 46, 3-Chloro-2,8-difluoro-10,11,12,13-tetrahydro-19H-5,18-methanodibenzo[c,f]pyrido[3,2-j][1,5,9]triazacyclotridecine-15,19(14H)-dione, hydrochloride] | 8 |
| Cl.O=C1c2cc(F)c(C(F)(F)F)cc2N2CN1c1ccc(=O)[nH]c1CCNCc1c2ccc(F)c1F [Example 48, 2,8,9-Trifluoro-3-(trifluoromethyl)-10,11,12,13-tetrahydro-19H-5,18-methanodibenzo[c,f]pyrido[3,2-j][1,5,9]triazacyclotridecine-15,19(14H)-dione hydrochloride] | 8.1 |
| Cl.O=C1c2cc(F)c(Cl)cc2N2CN1c1ccc(=O)[nH]c1CCNCc1c2ccc(F)c1F [Example 49, 3-Chloro-2,8,9-trifluoro-10,11,12,13-tetrahydro-19H-5,18-methanodibenzo[c,f]pyrido[3,2-j][1,5,9]triazacyclotridecine-15,19(14H)-dione hydrochloride] | 8.2 |
| O=C1c2cc(F)c(Cl)cc2N2CN1c1ccc(=O)[nH]c1CCNCc1c2ccc(F)c1F [Example 50, 3-Chloro-2,8,9-trifluoro-10,11,12,13-tetrahydro-19H-5,18-methanodibenzo-[c,f]pyrido[3,2-j][1,5,9]triazacyclotridecine-15,19(14H)-dione] | 8 |
| Cl.O=C1c2cc(F)c(F)cc2N2CN1c1ccc(=O)[nH]c1CCNCc1cc(F)ccc12 [Example 53, 2,3,8-Trifluoro-10,11,12,13-tetrahydro-19H-5,18-methanodibenzo[c,f]pyrido[3,2-j][1,5,9]triazacyclotridecine-15,19(14H)-dione hydrochloride] | 6.7 |
| CNc1cc2c(cc1F)C(=O)N1CN2c2ccc(F)cc2CNCCc2[nH]c(=O)ccc21 [Example 54, 2,8-Difluoro-3-(methylamino)-10,11,12,13-tetrahydro-19H-5,18-methano-dibenzo[c,f]pyrido[3,2-j][1,5,9]triazacyclotridecine-15,19(14H)-dione] | 6 |
| N#Cc1cc2c(cc1Cl)C(=O)N1CN2c2ccc(F)cc2CNCCc2[nH]c(=O)ccc21 [Example 55, 2-Chloro-8-fluoro-15,19-dioxo-10,11,12,13,14,15-hexahydro-19H-5,18-methano-dibenzo[c,f]pyrido[3,2-j][1,5,9]triazacyclotridecine-3-carbonitrile] | 7.2 |
| N#Cc1cc2c(cc1F)C(=O)N1CN2c2ccc(F)c(F)c2CNCCc2[nH]c(=O)ccc21 [Example 57, 2,8,9-Trifluoro-15,19-dioxo-10,11,12,13,14,15-hexahydro-19H-5,18-methano-dibenzo[c,f]pyrido[3,2-j][1,5,9]triazacyclotridecine-3-carbonitrile] | 7.4 |
| O=C1c2cc(F)c(C(F)(F)F)cc2N2CN1c1ccc(=O)[nH]c1CCNCc1c2ccc(F)c1Cl [Example 58, 9-Chloro-2,8-difluoro-3-(trifluoromethyl)-10,11,12,13-tetrahydro-19H-5,18-methano-dibenzo[c,f]pyrido[3,2-j][1,5,9]triazacyclotridecine-15,19(14H)-dione] | 8.9 |
| Cl.O=C1c2cc(Cl)c(C(F)(F)F)cc2N2CN1c1ccc(=O)[nH]c1CCNCc1cc(F)ccc12 [Example 59, 2-Chloro-8-fluoro-3-(trifluoromethyl)-10,11,12,13-tetrahydro-19H-5,18-methanodibenzo[c,f]pyrido[3,2-j][1,5,9]triazacyclotridecine-15,19(14H)-dione hydrochloride] | 7.8 |
| Cl.O=C1c2cc(Cl)c(C(F)(F)F)cc2N2CN1c1ccc(=O)[nH]c1CCNCc1c2ccc(F)c1F [Example 60, 2-Chloro-8,9-difluoro-3-(trifluoromethyl)-10,11,12,13-tetrahydro-19H-5,18-methanodibenzo[c,f]pyrido[3,2-j][1,5,9]triazacyclotridecine-15,19(14H)-dione hydrochloride] | 8.8 |
| Cl.O=C1c2cc(F)c(Br)cc2N2CN1c1ccc(=O)[nH]c1CCNCc1c2ccc(F)c1F [Example 62, 3-Bromo-2,8,9-trifluoro-10,11,12,13-tetrahydro-19H-5,18-methanodibenzo[c,f]pyrido[3,2-j][1,5,9]triazacyclotridecine-15,19(14H)-dione hydrochloride] | 8.2 |

same assay, conditions: HEK293 cells expressing human Nav1.8, human Navβ1 and human TREK1, P2 current, read-out: Nav1.8, pIC50 (converted)

| SMILES | IC50 [nM] |
| --- | --- |
| Cc1c(F)ccc2c1CNCCc1[nH]c(=O)ccc1N1CN2c2cc(C(F)(F)F)c(F)cc2C1=O [Example 61, 2,8-Difluoro-9-methyl-3-(trifluoromethyl)-10,11,12,13-tetrahydro-19H-5,18-methanodibenzo[c,f]pyrido[3,2-j][1,5,9]triazacyclotridecine-15,19(14H)-dione hydrochloride] | 3.98 |
